In patent publication US8350062B2, “Synthesis and anticancer activity of new actin-targeting small-molecule agents” (priority 2009, dated 2013):

Tested on: 60 different human tumor cell lines
Assay: NCI 60 cell line single dose screen, whole panel
Format: cell-based
Details: 10 micromolar, mean over cell lines
Source text: Analog 10 was screened utilizing 60 different human tumor cell lines, representing leukemia, melanoma and cancers of the lung, colon, brain, ovary, breast, prostate, and kidney in order to show selective growth inhibition or cell killing of particular tumor cell lines. This screen is unique in that the complexity of a 60 cell line dose response produced by a given compound results in a biological response pattern which can be utilized in pattern recognition algorithms (COMPARE program. See: http://dtp.nci.nih.gov/docs/compare/compare.html). Using these algorithms, it is possible to assign a putative mechanism of action to a test compound, or to determine that the response pattern is unique and not similar to that of any of the standard prototype compounds included in the NCI database. […]
Following drug addition, the plates are incubated for an additional 48 h at 37° C., 5% CO2, 95% air, and 100% relative humidity. […] Bound stain is subsequently solubilized with 10 mM trizma base, and the absorbance is read on an automated plate reader at a wavelength of 515 nm. […] Using the absorbance measurements [time zero, (Tz), control growth, (C), and test growth in the presence of drug (Ti)], the percentage growth is calculated.

COCCC(=O)NC[C@H](O)[C@H](C)C(=O)NCCC[C@H]1O[C@@]2(CCC[C@@H](CC[C@H](C)/C=C(\C)[C@H](C)O)O2)CCC1C (stereo partly shown) [Analog 10]
Growth Percent, Mean: 50.03%
